For one series, the target named is T1, TLR2 (Homo sapiens, UniProt O60603).
T1 construct: expressed in transfected cells; host or cells: HEK293
The series can be described thus: TLR2 antagonist screening, NF-κB-inducible SEAP reporter in HEK293 cells. The settings on record: 10 μM; stimulated with HKLM at 10^8 cell/ml. Type of series: cell-based. The method, then:
(§1) Stimulation of TLRs 2, 3, 4, 5, 7, 8, and 9 was determined by assessing activation of the transcription factor NF-κB in HEK293 cells that were engineered to express the corresponding receptors. Assessment of TLR stimulation was based on the use of an NF-κB-inducible secreted alkaline phosphatase (SEAP) reporter system in which the SEAP reporter was under the control of a promoter inducible by NF-κB. Thus, the degree of activation of TLRs can be indirectly quantified spectrophotometrically by measuring the amount of the SEAP reporter that is produced.
(§2) The appropriate TLR-expressing cells were plated in Growth Medium in a 96-well plate (25,000-50,000 cells/well). The cells were stimulated with the appropriate positive control ligand or no ligand was added (negative control). The positive control ligands were: HKLM was used to stimulate TLR2; poly(I:C) was used to stimulate TLR3; LPS was used to stimulate TLR4; Flagellin was used to stimulate TLR5; CL097 was used to stimulate TLR7; CL075 was used to stimulate TLR8; CpG oligodeoxynucleotide (ODN) 2006 was used to stimulate TLR9. To test whether (+)-morphinans could block that activation of the TLR, the cells were pretreated with an antagonist for 30 minutes prior to addition of the positive control ligand. For this, 20 μL of the stock test compound solution (100 μM in H2O) was added to give a total volume of 200 μL. […] After a 16-20 hr incubation period at 37° C. in a CO2 incubator, 20 μL of the cell culture supernatant was added to 180 μL of QUANTI-Blue™ Media (InvivoGen, San Diego, Calif.), and the resulting solutions were incubated at 37° C. for an additional 1-3 hours according to the manufacturer's instructions. The OD's of the samples were then read at 650 nm on a Beckman Coulter AD 340C Absorbance Detector.

The target of a further series is T2, TLR4 (Homo sapiens, UniProt O00206).
T2 construct: expressed in transfected cells; host or cells: HEK293
T2 sequence (O00206 24-839, species assumed): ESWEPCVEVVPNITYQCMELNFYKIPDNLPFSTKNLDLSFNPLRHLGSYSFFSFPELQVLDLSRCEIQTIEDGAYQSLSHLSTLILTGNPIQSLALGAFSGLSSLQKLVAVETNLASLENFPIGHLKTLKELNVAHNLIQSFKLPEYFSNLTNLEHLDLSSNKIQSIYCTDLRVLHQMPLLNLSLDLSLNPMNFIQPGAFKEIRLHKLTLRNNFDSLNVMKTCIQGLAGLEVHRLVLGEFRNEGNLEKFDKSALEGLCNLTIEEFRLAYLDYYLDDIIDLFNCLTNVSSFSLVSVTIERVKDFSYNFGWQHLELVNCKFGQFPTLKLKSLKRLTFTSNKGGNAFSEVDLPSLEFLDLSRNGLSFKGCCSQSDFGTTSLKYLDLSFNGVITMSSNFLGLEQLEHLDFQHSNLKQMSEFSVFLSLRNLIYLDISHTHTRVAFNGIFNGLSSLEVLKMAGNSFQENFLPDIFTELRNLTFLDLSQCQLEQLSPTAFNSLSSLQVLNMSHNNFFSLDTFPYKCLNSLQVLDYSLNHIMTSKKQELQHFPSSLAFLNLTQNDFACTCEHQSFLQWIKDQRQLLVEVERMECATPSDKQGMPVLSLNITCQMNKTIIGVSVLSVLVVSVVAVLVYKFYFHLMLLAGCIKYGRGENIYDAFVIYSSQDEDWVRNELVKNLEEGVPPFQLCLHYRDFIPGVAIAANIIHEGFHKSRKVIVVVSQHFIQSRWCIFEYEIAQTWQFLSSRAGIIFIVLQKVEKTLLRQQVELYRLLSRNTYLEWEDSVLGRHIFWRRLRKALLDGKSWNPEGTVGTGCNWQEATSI
T2 sequence (Q9Y6Y9 17-160 partner limits assumed, species assumed): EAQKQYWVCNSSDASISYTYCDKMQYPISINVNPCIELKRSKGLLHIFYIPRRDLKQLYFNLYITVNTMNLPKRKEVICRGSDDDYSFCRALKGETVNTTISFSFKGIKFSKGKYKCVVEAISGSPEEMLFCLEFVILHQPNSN
As to the kind of experiment: TLR4 antagonist screening, NF-κB-inducible SEAP reporter in HEK293 cells. Format: cell-based. The settings on record: 10 μM; stimulated with LPS at 100 ng/ml. The method, then:
as §1, §2

Another series addresses T3, TLR3 (Homo sapiens, UniProt O15455).
T3 construct: expressed in transfected cells; host or cells: HEK293
As to the kind of experiment: TLR3 antagonist screening, NF-κB-inducible SEAP reporter in HEK293 cells. As to conditions: 10 μM; stimulated with poly(I:C) at 1 μg/ml. Type of series: cell-based. The method, then:
as §1, §2

The target in series [1] is T4, TLR9 (Homo sapiens, UniProt Q9NR96).
T4 construct: expressed in transfected cells; host or cells: HEK293
T4 sequence (Q9NR96 26-1032): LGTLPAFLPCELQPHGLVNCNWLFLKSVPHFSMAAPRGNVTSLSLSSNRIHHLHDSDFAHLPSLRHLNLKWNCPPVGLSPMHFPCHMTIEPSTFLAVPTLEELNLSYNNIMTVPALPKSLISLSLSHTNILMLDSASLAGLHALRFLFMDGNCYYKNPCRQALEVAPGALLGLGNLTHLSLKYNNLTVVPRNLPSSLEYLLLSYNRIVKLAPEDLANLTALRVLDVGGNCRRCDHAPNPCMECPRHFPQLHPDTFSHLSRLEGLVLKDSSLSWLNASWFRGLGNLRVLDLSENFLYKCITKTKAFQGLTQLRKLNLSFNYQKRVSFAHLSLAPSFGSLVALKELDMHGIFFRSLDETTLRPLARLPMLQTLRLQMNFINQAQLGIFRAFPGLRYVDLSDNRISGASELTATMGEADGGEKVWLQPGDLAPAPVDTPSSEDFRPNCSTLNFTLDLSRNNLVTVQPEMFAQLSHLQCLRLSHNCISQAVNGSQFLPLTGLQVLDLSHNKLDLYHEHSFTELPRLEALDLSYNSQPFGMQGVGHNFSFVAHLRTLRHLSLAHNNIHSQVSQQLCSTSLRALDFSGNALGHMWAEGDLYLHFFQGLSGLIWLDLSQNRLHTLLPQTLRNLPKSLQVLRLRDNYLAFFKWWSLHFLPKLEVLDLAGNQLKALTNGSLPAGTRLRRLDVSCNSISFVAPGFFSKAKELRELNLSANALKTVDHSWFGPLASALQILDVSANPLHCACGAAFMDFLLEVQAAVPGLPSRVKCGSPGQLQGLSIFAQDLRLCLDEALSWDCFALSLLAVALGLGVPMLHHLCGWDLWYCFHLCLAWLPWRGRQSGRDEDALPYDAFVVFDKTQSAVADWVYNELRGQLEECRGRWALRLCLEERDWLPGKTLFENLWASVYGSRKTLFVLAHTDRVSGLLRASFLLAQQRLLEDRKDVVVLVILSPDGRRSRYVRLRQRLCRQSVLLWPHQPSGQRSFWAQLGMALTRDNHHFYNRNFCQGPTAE
As to the kind of experiment: TLR9 antagonist screening, NF-κB-inducible SEAP reporter in HEK293 cells. The settings on record: 10 μM; stimulated with CpG ODN 2006 at 100 ng/ml. Format: cell-based. The method, then: as §1, §2

Another series addresses T5, TLR5 (Homo sapiens, UniProt O60602).
T5 construct: expressed in transfected cells; host or cells: HEK293
As to the kind of experiment: TLR5 antagonist screening, NF-κB-inducible SEAP reporter in HEK293 cells. Type of series: cell-based. As to conditions: 10 μM; stimulated with Flagellin at 100 ng/ml. The method, then: as §1, §2

The subject of series [2] is chronic constriction injury (CCI) neuropathic pain model. As to the kind of experiment: Mechanical allodynia (Von Frey) in chronic constriction injury (Bennett) model, Example 3. Type of series: in vivo, rat. The settings on record: Day 14 post-surgery, 30 and 90 min post-dosing, vs vehicle. An excerpt: Neuropathic pain affects approximately 1% of the U.S. population and is extremely difficult to manage. Usually the pain is chronic, severe, and fails to respond to traditional analgesic drugs. Fortunately, one of the most widely used animal models for neuropathic pain closely mimics the pain endured by patients. In this model, termed the chronic constriction injury (CCI) or Bennett model, four closely spaced ligatures tied loosely around the sciatic nerve of a rat cause demyelination of the nerve, resulting in spontaneous pain, such as prolonged paw elevation and licking of the ligated paw. Induced pain in the nerve-injured limb can be measured using Von Frey filaments, applied to the plantar surface of the paw to test for responses to non-noxious tactile stimulation. The onset of this heightened mechanical allodynia is quite rapid and it persists for 2-3 months.
In this example, the CCI ligation was performed on the left sciatic nerve in three groups of rats. Von Frey testing of mechanical allodynia was performed on both paws on Day 14 to determine the analgesic efficacy of the test agent. The testing was performed pre-dosing, and at 30 and 90 minutes post-dosing.
The animals were allocated to treatment groups based on their baseline Von Frey data, measured prior to surgery. The mechanical allodynia scores for each group were reviewed to ensure that the mean values and standard deviation satisfied the assumption of homogeneity. Thirty-one (31) animals were used on the study. Thirty (30) animals were initially allocated to treatment groups, and the remaining […] animals were held as spares. One spare was then used to replace an animal that died during surgery. Body weights were taken one day after arrival, prior to surgery and weekly thereafter. On Day 14, after the final behavioral testing, the animals were euthanized by carbon dioxide asphyxiation. No necropsy was performed nor tissues collected.
All surgeries were performed under aseptic conditions. Prior to surgery, the rats were sedated using inhaled Isoflurane anesthetic. The left leg was shaved and prepped. The common sciatic nerve was exposed and freed from adherent tissue at mid-thigh by separating the muscle (biceps femoris) by blunt dissection. Proximal to the sciatic nerve's trifurcation; approximately 7 mm of nerve was freed from the adhering tissue. Four ligatures, approximately 1 mm apart, were tied loosely around the nerve using 6.0 chromic catgut. Each of the sutures was tied loosely with a square knot around the sciatic nerve. A brief twitch in the muscle surrounding the exposure was an indicator of the desired degree of constriction. The site was then closed using the appropriate suture material. Post-operative care and observations were carried out until the animal recovered consciousness.
The animals underwent a series of behavioral testing for neuropathic pain assessment. A Von Frey test of mechanical allodynia was performed on both hind paws prior to surgery to achieve a baseline measurement for randomization and then following surgery on Day 14 (test article efficacy) according to Table 4.
Twice prior to surgery, the animals were acclimated to the allodynia apparatus. This habituated the rats to the testing devices to familiarize them with the apparatus so they were calm at the time of testing. […] Animals were first habituated to the testing chamber so that they were calm enough for their pain threshold to be assessed. […]

In series [3] the test system is APAP-induced liver toxicity. The series can be described thus: Acetaminophen (APAP)-induced hepatotoxicity model. Type of series: in vivo, mouse. As to conditions: APAP 500 mg/Kg ip, 12 hours post-APAP. The procedure:
For this, APAP-induced liver toxicity was induced in male C57BL/6 mice aged between 8-10 weeks by a single intraperitoneal (ip) injection of APAP in PBS at a dose of 500 mg/Kg (Imaeda et al. (2009) J. Clin. Invest. 119(2):305-314). The ability of (+)-morphinans to reduce liver toxicity was tested in the following groups:
The (+)-morphinan (or PBS) was either administered as a single subcutaneous (sc) or ip injection concurrent with the APAP injection or one hour prior to the APAP injection.
The mice were sacrificed 12 hours post-APAP treatment. Liver samples were stained with H&E and analyzed for signs of necrosis and hemorrhage. Histology scores were assigned using the standard rating scale. The levels of serum alanine transaminase (ALT) were also measured in each animal using a standard assay.

The target in series [4] is T4, TLR9. The series can be described thus: TLR9 screening of (+)-morphinan library, SEAP reporter in HEK293 cells expressing TLR9. Format: cell-based. The settings on record: activator ODN2006; for OD 650 nm (mean ± sd): control (no activator) 0.14, activator 1.42 OD; for inhibition at 0.1 µM: HEK293, read-out: % Inhibition (mean), 100 nM; for inhibition at 10 µM: HEK293, read-out: % Inhibition (mean), 10 μM. An outline of the steps: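 HEK293 cells expressing TLR9 with an NF-κB-inducible SEAP reporter were preincubated with compound at 10 μM and 100 nM for 30 min at 37 °C, then stimulated with ODN2006. SEAP was read as OD 650 nm after 16-20 h, in triplicate.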

The test system of series [5] is Experimental Autoimmune Encephalomyelitis (EAE). As to conditions: for EAE clinical scores: bid for 20 days, Cmpd II-98 5 mg/kg sc, others 20 mg/kg sc, Prednisolone 4.5 mg/kg ip, vs vehicle control.
A short description of series [6]: Dissolution of compound in dosing vehicle (EAE study). Type of series: physicochemical. The settings on record: 20 mg/kg in sterile dd H2O; delivered as a suspension. An excerpt: It is not known whether the suspension dissolved adequately in the body to provide sufficient plasma concentration for efficacy.

Molecules are shown by their SMILES.

T3 sequence (O15455 24-904, species assumed): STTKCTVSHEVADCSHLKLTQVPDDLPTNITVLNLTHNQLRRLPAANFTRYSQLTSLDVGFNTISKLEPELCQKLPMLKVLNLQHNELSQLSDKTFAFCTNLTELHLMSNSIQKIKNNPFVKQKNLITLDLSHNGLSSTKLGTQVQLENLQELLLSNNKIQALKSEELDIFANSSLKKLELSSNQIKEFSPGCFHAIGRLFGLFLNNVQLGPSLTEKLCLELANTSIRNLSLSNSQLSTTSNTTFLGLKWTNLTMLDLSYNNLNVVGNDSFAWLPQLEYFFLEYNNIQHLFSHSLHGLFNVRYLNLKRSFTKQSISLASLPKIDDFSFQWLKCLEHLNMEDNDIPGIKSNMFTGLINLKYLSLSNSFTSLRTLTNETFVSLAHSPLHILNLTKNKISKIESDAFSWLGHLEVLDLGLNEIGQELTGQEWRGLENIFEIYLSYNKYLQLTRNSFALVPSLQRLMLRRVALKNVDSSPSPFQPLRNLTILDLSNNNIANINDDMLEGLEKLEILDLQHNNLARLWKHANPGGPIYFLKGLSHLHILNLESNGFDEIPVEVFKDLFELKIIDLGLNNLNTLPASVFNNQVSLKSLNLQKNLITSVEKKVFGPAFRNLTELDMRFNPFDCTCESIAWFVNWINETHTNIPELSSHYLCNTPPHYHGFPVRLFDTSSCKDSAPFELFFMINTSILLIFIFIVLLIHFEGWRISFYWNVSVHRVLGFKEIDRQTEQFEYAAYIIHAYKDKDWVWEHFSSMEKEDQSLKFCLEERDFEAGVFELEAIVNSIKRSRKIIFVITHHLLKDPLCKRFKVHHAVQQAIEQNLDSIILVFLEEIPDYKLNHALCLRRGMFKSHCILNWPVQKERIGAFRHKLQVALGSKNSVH
T5 sequence (O60602 21-858, species assumed): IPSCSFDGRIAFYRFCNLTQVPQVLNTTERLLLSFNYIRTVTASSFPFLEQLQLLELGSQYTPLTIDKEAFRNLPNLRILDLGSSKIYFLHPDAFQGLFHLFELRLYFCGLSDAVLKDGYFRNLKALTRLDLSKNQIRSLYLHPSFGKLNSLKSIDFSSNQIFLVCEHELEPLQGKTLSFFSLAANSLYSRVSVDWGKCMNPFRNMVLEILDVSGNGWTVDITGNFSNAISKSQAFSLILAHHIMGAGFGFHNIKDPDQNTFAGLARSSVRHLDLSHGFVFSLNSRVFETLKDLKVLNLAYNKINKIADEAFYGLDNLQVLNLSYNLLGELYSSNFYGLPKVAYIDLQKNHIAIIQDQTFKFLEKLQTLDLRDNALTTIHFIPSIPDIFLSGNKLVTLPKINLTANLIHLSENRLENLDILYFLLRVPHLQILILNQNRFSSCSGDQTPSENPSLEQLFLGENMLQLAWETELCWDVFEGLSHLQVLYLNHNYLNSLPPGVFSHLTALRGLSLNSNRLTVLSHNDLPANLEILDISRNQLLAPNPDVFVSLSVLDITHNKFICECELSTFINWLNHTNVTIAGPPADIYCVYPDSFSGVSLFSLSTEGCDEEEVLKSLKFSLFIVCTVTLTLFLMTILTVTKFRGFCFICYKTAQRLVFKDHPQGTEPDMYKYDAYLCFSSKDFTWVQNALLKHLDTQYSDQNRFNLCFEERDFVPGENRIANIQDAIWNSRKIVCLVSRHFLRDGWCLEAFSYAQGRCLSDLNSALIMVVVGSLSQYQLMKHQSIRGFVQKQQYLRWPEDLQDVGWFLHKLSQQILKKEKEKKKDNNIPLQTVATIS
T1 sequence (O60603 21-784, species assumed): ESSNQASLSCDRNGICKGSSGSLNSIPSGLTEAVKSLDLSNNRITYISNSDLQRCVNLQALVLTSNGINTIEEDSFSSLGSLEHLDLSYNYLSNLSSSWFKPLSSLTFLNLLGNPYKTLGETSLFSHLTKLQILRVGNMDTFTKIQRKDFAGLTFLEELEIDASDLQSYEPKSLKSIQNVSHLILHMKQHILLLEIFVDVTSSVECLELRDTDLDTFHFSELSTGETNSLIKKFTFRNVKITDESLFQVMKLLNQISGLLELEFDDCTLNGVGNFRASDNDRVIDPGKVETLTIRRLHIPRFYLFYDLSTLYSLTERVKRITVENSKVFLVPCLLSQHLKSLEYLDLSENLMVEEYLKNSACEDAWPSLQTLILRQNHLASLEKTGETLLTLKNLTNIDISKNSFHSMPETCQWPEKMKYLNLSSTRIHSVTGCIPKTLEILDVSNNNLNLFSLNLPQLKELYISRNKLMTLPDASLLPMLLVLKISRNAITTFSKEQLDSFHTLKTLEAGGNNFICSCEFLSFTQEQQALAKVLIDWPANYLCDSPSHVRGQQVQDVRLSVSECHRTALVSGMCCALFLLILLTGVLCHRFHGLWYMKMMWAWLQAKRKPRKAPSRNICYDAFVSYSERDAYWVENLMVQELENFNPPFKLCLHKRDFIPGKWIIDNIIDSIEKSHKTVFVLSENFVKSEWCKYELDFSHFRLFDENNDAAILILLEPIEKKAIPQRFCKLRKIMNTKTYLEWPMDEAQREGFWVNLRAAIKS

Consider `O=C1CC[C@]2(O)[C@@H]3Cc4ccc(O)c5c4[C@]2(CCN3CC2CC2)[C@@H]1O5` [(+)-Naltrexone, (+)-naltrexone], for which, on TLR2, the “Average % Inhibition at TLR2” value amounted to 21%. Also, the “Average % Inhibition at TLR4” value on TLR4 is 24%. Also, the “Average % Inhibition at TLR3” value on TLR3 is 22%. Also, at TLR9 [1], the “Average % Inhibition at TLR9” value was determined as 51%. Besides, the “Average % Inhibition at TLR5” value on TLR5 is recorded as 22%.
`NCC1(CC(=O)O)CCCCC1` [Gabapentin]: the “Mechanical allodynia (50% allodynia threshold), left (affected) paw” value in series [2] ((+)-naloxone.HCl 66.7 mg/kg S.C., Gabapentin 100 mg/kg I.P.) is given as “effective at significantly reducing the allodynia”. The “Mechanical allodynia (50% allodynia threshold), right (unaffected) paw” value in series [2] is on record as “higher threshold”.
For `COc1ccc2c3c1O[C@@H]1C(=O)CC[C@@H]4[C@H](C2)N(CC2CC2)CC[C@@]314` [II-24], the “Protection from APAP-induced toxicity” value in [3] (test doses and timing per Table 6) is on record as “None of compounds II-24, II-93, or III-2 provided any protection”. Also, in series [3] (vs APAP alone), the “Liver histology scores (necrosis and hemorrhage)” value is “about the same as those only exposed to APAP”. Moreover, the “OD 650 nm (mean ± sd)” value at TLR9 [4] (100 nM) is on record as 0.65 ± 0.04 OD. For the same compound, the “OD 650 nm (mean ± sd)” value at TLR9 [4] (10 μM) is reported as 0.09 ± 0.01 OD. Also, on TLR9 [4], the inhibition (as a rule, the share of the control response that was lost under treatment) at 0.1 µM amounted to 54% and the inhibition at 10 µM stood at 94%. In addition, the EAE clinical scores result in series [5] is “did not improve EAE”.
For the compound `COC1=CC=C2[C@@H]3Cc4ccc(OC)c5c4[C@]2(CCN3)[C@@H]1O5` [II-38], the “Dissolution in dosing vehicle” value in [6] was “did not dissolve into a solution”. Moreover, on TLR9 [4] (100 nM), the “OD 650 nm (mean ± sd)” value is 0.86 ± 0.01 OD. At TLR9 [4] (10 μM), the “OD 650 nm (mean ± sd)” value is 0.12 ± 0.01 OD. Besides, at TLR9 [4], the inhibition at 0.1 µM came to 40% and the inhibition at 10 µM is 92%. The EAE clinical scores result in series [5] is reported as “did not improve EAE”.
Consider `COC1=CCC2[C@@H]3Cc4ccc(OC)c5c4[C@]2(CCN3)[C@@H]1O5` (some centres unmarked) [II-98], for which, on TLR9 [4] (100 nM), the “OD 650 nm (mean ± sd)” value is reported as 1.02 ± 0.02 OD. Also, at TLR9 [4] (10 μM), the “OD 650 nm (mean ± sd)” value is 0.56 ± 0.03 OD. For the same compound, at TLR9 [4], the inhibition at 0.1 µM turned out to be 28% and the inhibition at 10 µM was found to be 60%. Further, the Acute toxicity entry in [5] (20 mg/kg bid, subcutaneous) is “acute toxicity was observed”.
As to `C[C@]12C=CC(=O)C=C1CC[C@@H]1[C@@H]2[C@@H](O)C[C@@]2(C)[C@H]1CC[C@]2(O)C(=O)CO` [Prednisolone, reference compound], the EAE clinical scores entry in series [5] is “significantly reduced EAE clinical scores”.

These data come from patent US10363251B2, “(+)-morphinans as antagonists of toll-like receptor 9 and therapeutic uses thereof” (Mallinckrodt LLC, priority 2009, dated 2019).
